Measurements as given in paper PMC8143339, “PK/PD Modeling of the PDE7 Inhibitor—GRMS-55 in a Mouse Model of Autoimmune Hepatitis” (Pharmaceutics, 2021).
Like-named read-outs stand apart in the source and are kept apart here.

Columns and labels:
[1] = tested on: paw edema in collagen-induced arthritis; design: method as in PMID 31899535; details: rats with collagen-induced arthritis, PK/PD arthritis progression model; cited from earlier work
PDE4B = details: reported in previous publication; read-out: IC50 for PDE4B inhibition; cited from earlier work
[2] = Pharmacokinetic study after IP administration; type: in vivo, female BALB/c mice; details: for half-life: ip
Method: Pharmacokinetics of GRMS-55 was evaluated in female BALB/c mice following intraperitoneal (IP) administration of this compound at doses of 50 and 100 mg·kg^−1. The investigated compound was dissolved in a vehicle composed of DMSO, PEG 400, and water for injection at a ratio of 25:25:50 (v/v/v). Animals were exsanguinated at 5, 15, 30, 60, 90, and 120 min following GRMS-55 administration. Blood samples were collected, allowed to clot for 30 min at room temperature, and centrifuged at 3000× g for 10 min. The serum was separated and stored at −20 °C until analysis.
To analyze GRMS-55 concentrations in the mouse serum, we used the previously developed HPLC method with UV detection. A detailed description of this method was published in a supplementary material of our previous publication. Briefly, 10 μL of 4-(8-((furan-2-ylmethyl)amino)-1,3-dimethyl-2,6-dioxo-1,2,3,6-tetrahydro-7H-purin-7-yl)-N′-(2-hydroxybenzylidene)butanehydrazide solution as internal standard (IS) was added to tubes containing 100 μL of the analyzed serum. The samples were mixed with 20 μL of 1 M hydrochloric acid solution, subjected to extraction with 1 mL of dichloromethane, and centrifuged at 10,000× g for 8 min. The organic layers were transferred to new tubes and evaporated with nitrogen at 37 °C. Dry residues were then dissolved in 100 μL of mobile phase and transferred to glass vial inserts for HPLC analysis (LaChrom Elite, Merck-Hitachi, Darmstadt, Germany). The separation was achieved on a LiChrospher 100 RP-18 (250 × 4 mm) column (particle size of 5 μm) protected with a LiChroCART guard column (Merck, Darmstadt, Germany) using the mobile phase composed of 20 mM solution of KH2PO4 (pH = 4.5) and acetonitrile at a ratio of 45:55 (v/v) pumped at a flow rate of 1 mL min^−1 at ambient temperature. The analytical wavelength was set to 209 nm. In these conditions, the retention time of GRMS-55 was 9.2 min and for IS it was 5.3 min. The analytical method was validated according to FDA Bioanalytical Method Validation, Guidance for Industry. Specificity of the method was estimated by analyzing six different independent samples of the blank serum. […] The calibration curve was constructed by plotting the ratios of the peak area of the studied compound to IS vs. concentrations of GRMS-55 and it was linear in the tested concentration range, i.e., 0.050–20 mg·L^−1. Within runs and between runs, precision and accuracy met the acceptance criteria, i.e., they were less than 15% expressed as coefficients of variation % (CVs%) or ±15% of the nominal concentrations, respectively, for all quality control levels. Recoveries of the analyzed compound and IS assessed by comparing the peak areas of extracted samples with corresponding extracts of blanks spiked with the analyte post-extraction ranged from 94% to 98%. The lower limit of quantification was 0.05 mg·L^−1. GRMS-55 in serum samples was stable at room temperature for at least 12 h and at –20 °C for a period of 12 months. The stock solutions were stable for over one month at 4 °C.
Initially, non-compartmental analysis of the concentration–time data of GRMS-55 was performed. Subsequently, pharmacokinetic modeling was conducted. Different compartmental models with linear and non-linear elimination were tested, and the final pharmacokinetic model with the best goodness-of-fit criteria was chosen. Several measures of goodness-of-fit were evaluated, i.e., value of the objective function, Akaike Information Criterion, Bayesian Information Criterion, visual inspection of fitting, and a precision of parameter estimates expressed as CVs%. Pharmacokinetic model parameters were estimated using the ADAPT 5 software (BMSR, Los Angeles, CA, USA) based on the weighted least squares algorithm. […]

[3] = Assessment of emetogenicity: α2-adrenoceptor agonist-induced anesthesia (xylazine/ketamine); type: in vivo, male CD-1 mice; details: doses up to 100 mg/kg IP
Method: Male CD-1 mice were anesthetized with xylazine (10 mg·kg^−1) and ketamine (80 mg·kg^−1) in saline for injection-administered IP. Fifteen minutes later, the animals were IP-administered with GRMS-55 at doses of 50 or 100 mg·kg^−1, rolipram at a dose of 10 mg·kg^−1, or the corresponding volume of vehicle and subsequently placed in a dorsal recumbency position. The return of the righting reflex (i.e., when the animal turned itself spontaneously to a prone position) was used as an endpoint to measure the duration of anesthesia. In this test, shortening of the sleeping time is a behavioral correlate of emesis.

PDE7A [4] = experiment: in vitro PDE7A inhibition assay; type: biochemical; details: ratio of IC50 values
PDE7A [5] = details: reported in previous publication; read-out: IC50 for PDE7A inhibition; cited from earlier work
PDE3A = tested on: PDE3A; design: method as in PMID 31899535; details: cited from earlier work

ka, absorption rate constant ([2]; IP 50 or 100 mg/kg, one-compartment model): 1.49 h⁻¹
half-life ([2]; female, BALB/c, mouse, serum, mice, IP, read-out: terminal half-life): ~30 min
half-life ([2]; female, BALB/c, mouse, serum, non-compartmental approach, IP, read-out: serum terminal half-life (converted)): ~30 min
half-life ([2]; female, BALB/c, mouse, serum, read-out: absorption half-life (ln2/ka)): 27.9 min
half-life ([2]; female, BALB/c, mouse, serum, read-out: elimination half-life (ln2/ke)): 9.1 min
Vd/F ([2]; female, BALB/c, mouse, serum, IP 50 or 100 mg/kg, one-compartment model, read-out: Vd/F, apparent volume of distribution): 1.81 L/kg
k el ([2]; female, BALB/c, mouse, serum, IP 50 or 100 mg/kg, one-compartment model, read-out: ke, elimination rate constant (converted)): 0.00127 s⁻¹
effect on sleeping time [3]: did not affect
SMILES: Cn1c(=O)c2c(nc(NCCc3ccccc3)n2CCCC(=O)NN=Cc2ccccc2O)n(C)c1=O [GRMS-55, 4-(1,3-dimethyl-2,6-dioxo-8-(phenethylamino)-1,2,3,6-tetrahydro-7H-purin-7-yl)-N′-(2-hydroxybenzylidene)butanehydrazide]
IC50, decrease of paw edema [1]: 0.26 µg/mL
IC50 (PDE4B): 26.9 µM
times weaker PDE7A inhibitor than BRL-50481 (PDE7A [4]): 3.5
IC50 (PDE7A [5]): 7.3 µM
potency of PDE3A suppression (PDE3A): moderate
